Measured values from patent publication US8778871B2 (Takeda Pharmaceutical Company Limited, priority 2004, dated 2014).
Non-standard residues stand in square brackets, D forms with d. Residues, ends and D or L forms follow the SMILES beside them. *: point of attachment. Propanoyl(3-(3-pyridyl)) = O=C(CCc1cccnc1)*; Arg(Me) = CNC(=N)NCCC[C@H](N)C(=O)O; d4Pal = N[C@H](Cc1ccncc1)C(=O)O; azaGly = NNC(=O)O

Assays:
[1] = Effect of elevating sugar level by metastin derivatives (blood glucose and glucagon); type: in vivo, rat; details: Wistar male rats; for blood glucose level: i.v. 80 nmol/kg (FIG. 10); for blood glucagon level: i.v. 80 nmol/kg (FIG. 11)
Excerpt: The value indicates (mean±SE) (n=5). Symbol * designates that the P-value is 0.05 or less, when compared to the saline group and symbol ** designates that the P-value is 0.01 or less, when compared to the saline group.
In the figure, symbols open circle, closed circle and closed triangle designate blood glucagon level in the saline group and the 80 nmol/kg KiSS1-305 (Compound No. 305) group, the 80 nmol/kg KiSS1-322 (Compound No. 322) group, respectively. The value indicates (mean±SE) (n=5). Symbol * designates that the P-value is 0.05 or less, when compared to the saline group.
An operation was performed in free moving mature Wistar male rats (weighing […] at the time of operation) in a manner similar to TEST EXAMPLE 1 to collect blood. After the operation, the animal was maintained overnight. […] To prevent blood clotting, 3 μl of 300 KIU/ml aprotinin solution containing 3 mg/ml EDTA had previously been filled in the syringe. […] Blood was collected from the jugular vein by 300 μl each 2, 5, 15, 30, 45 and 60 minutes starting from the intravenous injection. The collected blood was centrifuged (13,000 rpm, 5 minutes) with a high speed refrigerated centrifuge (MR-150, Tomy Seiko Co, Ltd.) to recover the supernatant (plasma). Glucose level in blood was measured using Fuji Drychem 3500 (FUJI FILM) and glucagon level in blood was measured using a glucagon kit “Daiichi” (Daiichi Radioisotope Laboratories Ltd.), as in TEST EXAMPLE 1 or 2.

[2] = system: human colonic carcinoma-derived cell line SW620; experiment: Tumor growth inhibition activity in tumor-bearing mice; type: in vivo, mouse; details: for tumor growth inhibition (tumor size) compared to the vehicle group: s.c. osmotic pump; for effect of tumor growth inhibition relative to Metastin: in vivo
Description: The abscissa denotes the number of days after injection. The bar on the abscissa designates a dosing period. The ordinate denotes a tumor size (mm^3).
On the following day, human colonic carcinoma-derived cell line SW620 (ATCC) was dissolved in 20 mM phosphate buffered saline (pH 7.2)(PBS) containing 200 μL of 0.15M NaCl at a density of 2×10^6 cells. The resulting solution was subcutaneously injected into the left flank of the mice above. The day when the cells were injected was made Day 0. Tumor was measured with an electronic caliper every other or 2 other days during Days 4 to 13 from the cell administration, and tumor size was calculated by the equation: (shorter diameter)^2×longer diameter/2.

[3] = Action of reducing testosterone level in blood in mature male rat (1 mM peptide in 50% DMSO, ALZET osmotic pump); type: in vivo; details: 1 mM peptide in 50% DMSO aqueous solution, ALZET osmotic pump s.c., six days
[4] = Blood testosterone level decreasing effect in mature male rat (2 mM peptide solution, ALZET osmotic pump); type: in vivo; details: 2 mM peptide solution in distilled water, ALZET osmotic pump s.c., 6 days, Tables 28 and 29
Description: (§1) This peptide solution was filled in 5 ALZET osmotic pumps (Model 2001, 0.2 ml in volume, release rate: 0.001 ml/hr, DURECT Corporation). The ALZET pumps filled with the peptide solution were implanted subcutaneously in 5 CD(SD)IGS male rats of 9 weeks old after birth (Charles River Japan, Inc.) on the back under ether anesthesia by one pump for one animal. For negative control, distilled water (Otsuka Pharmaceutical Co., Ltd.) was filled in 5 ALZET osmotic pumps, which were similarly implanted in 5 male CD(SD)IGS rats (Charles River Japan, Inc.), respectively. These pump-implanted rats were fed for 6 days under normal feeding conditions. After weighing, the animal was decapitated to collect blood. After 0.03 ml/ml blood of aprotinin solution (Trasylol, Bayer) containing 0.1 mg/ml EDTA.2Na was added to blood, the mixture was centrifuged at 1,800 G for 25 minutes to isolate/recover plasma. From the plasma obtained, 0.05 ml was applied to radioimmunoassay (DPC.Total Testosterone Kit, Diagnostic Products Corporation) to measure the plasma testosterone level of each rat. The value below the limit of measurement (0.04 ng/ml of plasma level) in radioimmunoassay was treated as 0. A mean value of the testosterone levels from 5 rats receiving the peptide was calculated and a relative value (percent) of the mean value to a mean value from 5 rats receiving distilled water.

[5] = Blood testosterone level decreasing effect in mature male rat (0.1 mM peptide solution); type: in vivo
Description: as §1
In a manner similar to TEST EXAMPLE 14, evaluation was made using 0.1 mM peptide solution and a part of the results obtained are shown in TABLE 30.

[6] = SW620 tumor-bearing BALB/cAnN-nu mice, 1 mM, 24 mol/day/mouse×14 days (24 nmol for Compound No. 305)
[7] = SW620 tumor-bearing mice, 0.1 mM, 1/10 dose of Metastin, 2.4 mol (nmol)/day/mouse×14 days

Row | SMILES | blood glucose level [1] | blood glucagon level [1] | tumor growth inhibition (tumor size) compared to the vehicle group [2, 6] | effect of tumor growth inhibition relative to Metastin ([2]; SW620 tumor-bearing mice) [times] | tumor growth inhibition (tumor size) compared to the vehicle group [2, 7] | tumor growth inhibition (tumor size) compared with the Metastin group ([2]; SW620 tumor-bearing mice, same dose as Metastin, 24 mol/day/mouse×14 days) | Testosterone level in Blood [3] [%] | Teststerone level in Blood [4] [%] | Teststerone level in Blood [5] [%]
1 | CNC(=N)NCCC[C@H](NC(=O)[C@H](CC(C)C)NC(=O)NNC(=O)[C@H](Cc1ccccc1)NC(=O)[C@H](CO)NC(=O)[C@H](CC(N)=O)NC(=O)CCc1cccnc1)C(=O)N[C@@H](Cc1ccccc1)C(N)=O [Compound No. 322, 3-(3-Pyridyl)propionyl-Asn-Ser-Phe-AzaGly-Leu-Arg(Me)-Phe-NH2] ({Propanoyl(3-(3-pyridyl))}-NSF[azaGly]L[Arg(Me)]F-NH2) | increase in the blood glucose level | increase in the blood glucagon level | significant tumor growth inhibition activity from Days 6 to 11 | 10 | significant tumor growth inhibition activity in a 1/10 dose (2.4 mol/day/mouse×14 days) of Metastin from Days 6 to 8 | on Day 11, showed a significant tumor growth inhibition activity even when compared with the Metastin group |  |  | 
2 | CNC(=N)NCCC[C@H](NC(=O)[C@H](CC(C)C)NC(=O)NNC(=O)[C@H](Cc1ccccc1)NC(=O)[C@H](CO)NC(=O)[C@H](CC(N)=O)NC(=O)[C@@H](Cc1ccncc1)NC(=O)[C@H](N)Cc1ccc(O)cc1)C(=O)N[C@@H](Cc1ccccc1)C(N)=O [Compound No. 305, D-Tyr-D-Pya(4)-Asn-Ser-Phe-AzaGly-Leu-Arg(Me)-Phe-NH2] (H-[dY][d4Pal]NSF[azaGly]L[Arg(Me)]F-NH2) | increase in the blood glucose level | increase in the blood glucagon level | significant effect of tumor growth inhibition from Days 5 to 9 and on Day 11 | 10 | significant tumor growth inhibition activity from Days 5 to 11 |  | 2 | 2 | 48
